Drawing on US8541404B2, “Inhibitors of the human aldosterone synthase CYP11B2” (ElexoPharm GmbH, priority 2009, dated 2013), this text covers melting point for three compounds.

One may read the melting point as the temperature of the solid-liquid transition.

SMILES strings stand for the structures. Bounds are passed on as bounds.

In turn, `O=C1CNc2cc(-c3cncc4ccccc34)ccc2N1` [Example 56, 6-(Isoquinolin-4-yl)-3,4-dihydroquinoxalin-2(1H)-one] displayed a melting point above 300 °C.

`CN1CC(=O)Nc2ccc(-c3cccnc3)cc21` [Example 57, 4-Methyl-6-(pyridin-3-yl)-3,4-dihydroquinoxalin-2(1H)-one]: the melting point was above 300 °C.

Take `CCC(c1cc2c3c(c1)CCN3C(=O)CC2)n1ccnc1` (stereo not drawn) [Example 60, 8-(1-(1H-imidazol-1-yl)propyl)-1,2,5,6-tetrahydropyrrolo[3,2,1-ij]quinolin-4-one]: the melting point is 195 °C.
